Data on 5 compounds can be found in ChEMBL document CHEMBL5338795, “Novel Triazoles with Potent and Broad-Spectrum Antifungal Activity In Vitro and In Vivo” (J Med Chem, 2023).

For orientation: IC50 means the point on the concentration scale where inhibition reaches its midpoint. Low readings indicate greater potency, high ones weaker potency. A word on the MIC80: it is an inhibitory concentration at the 80% level, which refers to growth in some studies and to a panel of isolates in others.

In brackets after ≈: the same amount, converted by molar mass. Activity calls are given as the source filed them. No cut-off for these calls is given here.

In data set [1] the test system is Candida albicans. Briefly: In-vivo antifungal activity against Candida albicans […] infected in skin infected ICR mouse model assessed as reduction in fungal burden in skin at 1 mg/kg, ip pretreated for 24 hrs followed by infection and measured for 5 days by Periodic acid-Schiff staining based analysis. Type of data set: functional, organism-based. The note with it: time 144.0 hrs.

Data set [2] concerns Candida albicans. In words: In-vivo antifungal activity against Candida albicans […] infected in skin infected ICR mouse model assessed as wound healing at 1 mg/kg, ip pretreated for 24 hrs followed by infection and measured for 5 days. Type of data set: functional, organism-based. Particulars: time 144.0 hrs.
For a further data set, the target named is Cytochrome P450 3A4 (Homo sapiens, UniProt P08684). In words: Inhibition of CYP3A4 in human liver microsomes using testosterone as substrate preincubated for 5 mins followed by NADPH addition and measured after 5 mins by LC-MS/MS analysis. The format is ADME, Microsome. A general note: Microsomes from liver hold many membrane-bound enzymes, among them those of drug oxidation.

The test system of data set [3] is Candida albicans. In words: Antifungal activity against fluconazole-resistant Candida albicans 901 assessed as inhibition of fungal growth measured for 24 hrs by CLSI based microdilution analysis. The format is functional.
For another data set, the system named is Candida tropicalis. In words: Antifungal activity against Candida tropicalis ATCC 750 assessed as reduction in fungal growth incubated for 24 hrs by CLSI based microdilution analysis. The format is functional. For orientation: In broth dilution the organism is exposed to a series of concentrations in liquid medium.
The test system of data set [4] is Candida albicans. Briefly: Antifungal activity against Candida albicans SC5314 assessed as reduction in fungal growth incubated for 24 hrs by CLSI based microdilution analysis. The format is functional.
Data set [5] deals with Meyerozyma guilliermondii. Briefly: Antifungal activity against Meyerozyma guilliermondii ATCC 6260 assessed as reduction in fungal growth incubated for 24 hrs by CLSI based microdilution analysis. The format is functional.
The next data set deals with Aspergillus fumigatus. In words: Antifungal activity against Aspergillus fumigatus CGMCC3 7795 assessed as reduction in fungal growth incubated for 48 hrs by CLSI based microdilution analysis. Type of data set: functional.
The next data set relates to Cryptococcus neoformans. In words: Antifungal activity against Cryptococcus neoformans CGMCC3 1563 assessed as reduction in fungal growth incubated for 72 hrs by CLSI based microdilution analysis. Type of data set: functional.
Data set [6] deals with Candida albicans. In words: Antifungal activity against fluconazole-resistant Candida albicans 13 assessed as inhibition of fungal growth measured for 24 hrs by CLSI based microdilution analysis. The format is functional.
The next data set concerns Candida parapsilosis. In words: Antifungal activity against Candida parapsilosis ATCC 22019 assessed as reduction in fungal growth incubated for 24 hrs by CLSI based microdilution analysis. Type of data set: functional. Particulars: Lodderomyces parapsilosis.
The nature of data set [7]: Hemolytic activity in mouse RBC assessed as hemolysis at 100 microg/ml incubated for 60 mins relative to control. The format is toxicity, cell-based, Erythrocyte. Particulars: red blood cells (erythrocytes), at 100 µg/mL, read-out: Activity.
The test system of data set [8] is Candida albicans. Briefly: Antifungal activity against fluconazole-resistant Candida albicans 15 assessed as inhibition of fungal growth measured for 24 hrs by CLSI based microdilution analysis. Type of data set: functional.
The next data set has as its system Nakaseomyces glabratus. Briefly: Antifungal activity against Candida glabrata ATCC 15126 assessed as reduction in fungal growth incubated for 24 hrs by CLSI based microdilution analysis. Type of data set: functional.
Data set [9] concerns Candida albicans. Briefly: Antifungal activity against fluconazole-resistant Candida albicans 102 assessed as inhibition of fungal growth measured for 24 hrs by CLSI based microdilution analysis. Type of data set: functional.
For data set [10], the system named is Candida albicans. Briefly: Antifungal activity against fluconazole-resistant Candida albicans 24D assessed as inhibition of fungal growth measured for 24 hrs by CLSI based microdilution analysis. The format is functional.
The subject of data set [11] is Candida albicans. In words: Antifungal activity against fluconazole-resistant Candida albicans 112869 assessed as inhibition of fungal growth measured for 24 hrs by CLSI based microdilution analysis. Type of data set: functional.
Data set [12] has as its system Candida albicans. In words: In-vivo antifungal activity against multidrug-resistant Candida albicans 24D infected in ICR mouse model assessed as median survival time at 1 mg/kg, ip administered once daily pretreated for 24 hrs followed by infection and measured every 2 hrs for 5 days. Type of data set: functional. Particulars: time 144 hrs.
In data set [13] the test system is Candida albicans. In words: In-vivo antifungal activity against Candida albicans […] infected in ICR mouse model assessed as median survival time at 1 mg/kg, ip administered once daily pretreated for 24 hrs followed by infection and measured every 2 hrs for 5 days. The note with it: time 144 hrs. Type of data set: functional.
For data set [14], the system named is Candida albicans. Briefly: Potency index, ratio of itraconazole MIC80 to test compound MIC for antifungal activity against Candida albicans SC5314 assessed as reduction in fungal growth incubated for 24 hrs by CLSI based microdilution analysis. Type of data set: functional.
For data set [15], the system named is Candida albicans. Briefly: Potency index, ratio of voriconazole MIC80 to test compound MIC for antifungal activity against Candida albicans SC5314 assessed as reduction in fungal growth incubated for 24 hrs by CLSI based microdilution analysis. Type of data set: functional.
Data set [16] concerns Candida albicans. Briefly: Potency index, ratio of fluconazole MIC80 to test compound MIC for antifungal activity against Candida albicans SC5314 assessed as reduction in fungal growth incubated for 24 hrs by CLSI based microdilution analysis. The format is functional.

Sequence of Cytochrome P450 3A4 (P08684 whole entry): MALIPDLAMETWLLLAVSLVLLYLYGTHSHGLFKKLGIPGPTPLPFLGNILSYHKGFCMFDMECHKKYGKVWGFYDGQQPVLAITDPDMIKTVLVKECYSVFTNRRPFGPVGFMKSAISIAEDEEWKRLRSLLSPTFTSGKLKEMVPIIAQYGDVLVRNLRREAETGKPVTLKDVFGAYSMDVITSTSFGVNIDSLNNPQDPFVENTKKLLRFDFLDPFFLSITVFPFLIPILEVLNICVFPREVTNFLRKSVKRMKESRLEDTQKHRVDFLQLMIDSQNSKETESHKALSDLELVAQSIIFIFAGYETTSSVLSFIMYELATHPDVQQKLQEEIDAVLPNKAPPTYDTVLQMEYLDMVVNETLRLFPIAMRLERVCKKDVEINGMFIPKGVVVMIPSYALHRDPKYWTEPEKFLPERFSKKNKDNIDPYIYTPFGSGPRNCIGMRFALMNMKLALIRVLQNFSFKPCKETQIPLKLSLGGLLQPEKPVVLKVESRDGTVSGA

Take `N#C/C(=C1/SC[C@@H](c2ccc(Cl)cc2Cl)S1)n1ccnc1`: in the data set on Candida albicans [1], the result was Active. For the same compound, in the data set on Candida albicans [2], the result was inactive.

With `OC(CN1CCN(CCCn2ccc3cc(Br)ccc32)CC1)(Cn1cncn1)c1ccc(F)cc1F` (configuration not stated), half-maximal inhibition on Cytochrome P450 3A4 (IC50) required 130 nM. Besides, the MIC80 is 1.25 µg/mL (≈ 2.23 µM) in the data set with Candida albicans [3]; 0.312 µg/mL (≈ 0.558 µM) with Candida tropicalis; 0.031 µg/mL (≈ 0.0554 µM) in the data set on Candida albicans [4]; 0.015 µg/mL (≈ 0.0268 µM) in [5]; 0.625 µg/mL (≈ 1.12 µM) in the data set with Aspergillus fumigatus; 0.031 µg/mL (≈ 0.0554 µM) in the data set with Cryptococcus neoformans. The MIC80 stood at 0.031 µg/mL (≈ 0.0554 µM) in the data set on Candida albicans [6]; 0.062 µg/mL (≈ 0.111 µM) in the data set with Candida parapsilosis; 1.25 µg/mL (≈ 2.23 µM) in the data set on Candida albicans [8]; 0.312 µg/mL (≈ 0.558 µM) in the data set on Nakaseomyces glabratus; 0.062 µg/mL (≈ 0.111 µM) in the data set with Candida albicans [9]; 0.062 µg/mL (≈ 0.111 µM) in the data set with Candida albicans [10]. Further, the MIC80 in the data set with Candida albicans [11] came to 0.125 µg/mL (≈ 0.223 µM). The hemolysis at 1 h, 100 microg/ml in data set [7] came out at 5.9%.

Consider `C[C@@H](c1ncncc1F)[C@](O)(Cn1cncn1)c1ccc(F)cc1F` [VORICONAZOLE], for which the Time with Candida albicans [12] stood at 9 days; in the data set with Candida albicans [13], 7 days. Further, the MIC80 with Candida albicans [3] is more than 100 µg/mL; in the data set on Candida tropicalis it was 0.312 µg/mL (≈ 0.893 µM); with Candida albicans [4], 0.062 µg/mL (≈ 0.177 µM); in data set [5], 0.062 µg/mL (≈ 0.177 µM); in the data set with Aspergillus fumigatus, 0.312 µg/mL (≈ 0.893 µM); in the data set on Cryptococcus neoformans, 0.031 µg/mL (≈ 0.0887 µM). Besides, the MIC80 is 25 µg/mL (≈ 71.6 µM) in the data set on Candida albicans [6]; 0.062 µg/mL (≈ 0.177 µM) in the data set with Candida parapsilosis; 0.625 µg/mL (≈ 1.79 µM) with Candida albicans [8]; 0.312 µg/mL (≈ 0.893 µM) in the data set with Nakaseomyces glabratus; more than 100 µg/mL with Candida albicans [9]; more than 100 µg/mL in the data set with Candida albicans [10]. Further, the MIC80 in the data set with Candida albicans [11] is more than 100 µg/mL.

For the compound `OC(CN1CCN(CCn2ccc3cc(Br)ccc32)CC1)(Cn1cncn1)c1ccc(F)cc1F` (configuration not stated), the Ratio turned out to be 4 with Candida albicans [14], 4 with Candida albicans [15] and 32 in the data set with Candida albicans [16]. Further, the MIC80 in the data set on Candida albicans [3] is 1.25 µg/mL (≈ 2.29 µM); in the data set with Candida tropicalis, 0.156 µg/mL (≈ 0.286 µM); with Candida albicans [4] it was 0.015 µg/mL (≈ 0.0275 µM); in data set [5], 0.015 µg/mL (≈ 0.0275 µM); in the data set on Aspergillus fumigatus, 0.625 µg/mL (≈ 1.15 µM); in the data set on Cryptococcus neoformans, 0.015 µg/mL (≈ 0.0275 µM). The MIC80 came to 0.015 µg/mL (≈ 0.0275 µM) in the data set on Candida albicans [6]; 0.015 µg/mL (≈ 0.0275 µM) in the data set with Candida parapsilosis; 0.312 µg/mL (≈ 0.572 µM) with Candida albicans [8]; 0.156 µg/mL (≈ 0.286 µM) in the data set on Nakaseomyces glabratus; 0.015 µg/mL (≈ 0.0275 µM) with Candida albicans [9]; 0.031 µg/mL (≈ 0.0568 µM) in the data set with Candida albicans [10]. In addition, the MIC80 with Candida albicans [11] worked out at 0.062 µg/mL (≈ 0.114 µM). The hemolysis at 1 h, 100 microg/ml in [7] was found to be 1.2%.

Take `CCC(C)n1ncn(-c2ccc(N3CCN(c4ccc(OCC5COC(Cn6cncn6)(c6ccc(Cl)cc6Cl)O5)cc4)CC3)cc2)c1=O` (configuration not stated) [ITRACONAZOLE]: the MIC80 in the data set on Candida albicans [3] was more than 100 µg/mL; in the data set with Candida tropicalis, 0.625 µg/mL (≈ 0.886 µM); in the data set on Candida albicans [4], 0.062 µg/mL (≈ 0.0879 µM); in data set [5] it was 0.25 µg/mL (≈ 0.354 µM); in the data set on Aspergillus fumigatus, 0.312 µg/mL (≈ 0.442 µM); with Cryptococcus neoformans it was 0.062 µg/mL (≈ 0.0879 µM). For the same compound, the MIC80 in the data set with Candida albicans [6] is more than 100 µg/mL; in the data set on Candida parapsilosis, 0.25 µg/mL (≈ 0.354 µM); in the data set with Candida albicans [8], more than 100 µg/mL; in the data set with Nakaseomyces glabratus, 0.625 µg/mL (≈ 0.886 µM); with Candida albicans [9], more than 100 µg/mL; with Candida albicans [10] it was more than 100 µg/mL. Besides, the MIC80 in the data set with Candida albicans [11] was more than 100 µg/mL.
